In patent publication US10150728B2, “Alkylene derivatives” (Shionogi & Co., Ltd., priority 2013, dated 2018):

Key:
[1] = molecular target: recombinant human ACC2 (Homo sapiens (Human), UniProt O00763); assay: Measurement of inhibitory activity on human ACC2 (MALDI-TOF MS, acetyl CoA to malonyl CoA conversion); type: biochemical
In short: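 His-tagged human ACC2 (residues 27–2458) from baculovirus-infected Sf-9 cells was preincubated 1 h in pH 7.4 HEPES-KOH buffer with MgCl2, 6-10 mM potassium citrate, glutathione and BSA. Substrate solution held 1 mM ATP, 0.8 mM acetyl CoA and 25-50 mM bicarbonate. After 1–3 h at room temperature, malonyl CoA/(malonyl+acetyl CoA) was read by negative-mode MALDI-TOF MS; citrate, bicarbonate and time varied by enzyme lot.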

[2] = molecular target: recombinant human ACC1 (Homo sapiens (Human), UniProt Q13085); assay: Measurement of inhibitory activity on human ACC1 (MALDI-TOF MS, acetyl CoA to malonyl CoA conversion); type: biochemical
From the text: Preparation 2: Preparation of Recombinant Human ACC1
After a cDNA encoding human ACC1 (1 amino acid residue to 2346 amino acid residues from the N-terminus) was cloned from human liver cDNA library (BioChain), human ACC1 gene containing myc-tag and His-tag sequence at 3′ terminus was inserted into pIEXBAC3 (Novagen). Recombinant baculovirus was generated using FlashBACGOLD system (Oxford Expression Technologies) according to the manufacturer's protocol. To express human ACC1, Sf-9 cells were infected with recombinant baculovirus. After infected cells were disrupted, the filtrated lysate was subjected to Ni-affinity chromatography and anion-exchange chromatography. The fractions containing human ACC1 protein were pooled as recombinant human ACC1 solution.
The Measurement of Inhibitory Activity on Human ACC1 and the ACC2
Recombinant human ACC1 and recombinant human ACC2, which were prepared by the method mentioned above, were preincubated with assay buffer solution (50 mM HEPES-KOH (pH 7.4), 10 mM magnesium chloride, 6-10 mM potassium citrate, 4 mM reduced form of glutathione, 1.5 mg/ml bovine serum albumin) for one hour. Then, 0.2 μL of each this invention compound solution (in DMSO) were dispensed to 384-well microplate, 5 μL of the preincubated enzyme solution and 5 μL of substrate solution (50 mM HEPES-KOH (pH 7.4), 1 mM ATP, 0.8 mM acetyl CoA and 25-50 mM potassium bicarbonate) were added to microplate. After centrifugation and shaking, the reaction mixtures were incubated in a humidified box at room temperature for 1 to 3 hours. After the incubation, the enzyme reactions were stopped by the addition of EDTA. Then, after the samples were cocrystallized with CHCA (α-cyano-4-hydroxy cinnamic acid) matrices on MALDI target plate, by using the matrix assist laser […] time-of-flight mass spectrometer (MALDI-TOF MS), samples were measured in reflector negative mode. Deprotonated ions of acetyl CoA (AcCoA) of substrate and malonyl CoA (MalCoA) of the reaction product were detected, then, the conversion rates of acetyl CoA to malonyl CoA was calculated by the intensity of [MalCoA-H]−/(Intensity of [MalCoA-H]−+Intensity of [AcCoA-H]−) using each signal strength. […] In addition, potassium citrate concentrations in assay buffer solution, potassium hydrogen carbonate concentrations in substrate solution and incubation time were adjusted by each lot of enzyme.

Chain of recombinant human ACC2 (O00763 27-2458): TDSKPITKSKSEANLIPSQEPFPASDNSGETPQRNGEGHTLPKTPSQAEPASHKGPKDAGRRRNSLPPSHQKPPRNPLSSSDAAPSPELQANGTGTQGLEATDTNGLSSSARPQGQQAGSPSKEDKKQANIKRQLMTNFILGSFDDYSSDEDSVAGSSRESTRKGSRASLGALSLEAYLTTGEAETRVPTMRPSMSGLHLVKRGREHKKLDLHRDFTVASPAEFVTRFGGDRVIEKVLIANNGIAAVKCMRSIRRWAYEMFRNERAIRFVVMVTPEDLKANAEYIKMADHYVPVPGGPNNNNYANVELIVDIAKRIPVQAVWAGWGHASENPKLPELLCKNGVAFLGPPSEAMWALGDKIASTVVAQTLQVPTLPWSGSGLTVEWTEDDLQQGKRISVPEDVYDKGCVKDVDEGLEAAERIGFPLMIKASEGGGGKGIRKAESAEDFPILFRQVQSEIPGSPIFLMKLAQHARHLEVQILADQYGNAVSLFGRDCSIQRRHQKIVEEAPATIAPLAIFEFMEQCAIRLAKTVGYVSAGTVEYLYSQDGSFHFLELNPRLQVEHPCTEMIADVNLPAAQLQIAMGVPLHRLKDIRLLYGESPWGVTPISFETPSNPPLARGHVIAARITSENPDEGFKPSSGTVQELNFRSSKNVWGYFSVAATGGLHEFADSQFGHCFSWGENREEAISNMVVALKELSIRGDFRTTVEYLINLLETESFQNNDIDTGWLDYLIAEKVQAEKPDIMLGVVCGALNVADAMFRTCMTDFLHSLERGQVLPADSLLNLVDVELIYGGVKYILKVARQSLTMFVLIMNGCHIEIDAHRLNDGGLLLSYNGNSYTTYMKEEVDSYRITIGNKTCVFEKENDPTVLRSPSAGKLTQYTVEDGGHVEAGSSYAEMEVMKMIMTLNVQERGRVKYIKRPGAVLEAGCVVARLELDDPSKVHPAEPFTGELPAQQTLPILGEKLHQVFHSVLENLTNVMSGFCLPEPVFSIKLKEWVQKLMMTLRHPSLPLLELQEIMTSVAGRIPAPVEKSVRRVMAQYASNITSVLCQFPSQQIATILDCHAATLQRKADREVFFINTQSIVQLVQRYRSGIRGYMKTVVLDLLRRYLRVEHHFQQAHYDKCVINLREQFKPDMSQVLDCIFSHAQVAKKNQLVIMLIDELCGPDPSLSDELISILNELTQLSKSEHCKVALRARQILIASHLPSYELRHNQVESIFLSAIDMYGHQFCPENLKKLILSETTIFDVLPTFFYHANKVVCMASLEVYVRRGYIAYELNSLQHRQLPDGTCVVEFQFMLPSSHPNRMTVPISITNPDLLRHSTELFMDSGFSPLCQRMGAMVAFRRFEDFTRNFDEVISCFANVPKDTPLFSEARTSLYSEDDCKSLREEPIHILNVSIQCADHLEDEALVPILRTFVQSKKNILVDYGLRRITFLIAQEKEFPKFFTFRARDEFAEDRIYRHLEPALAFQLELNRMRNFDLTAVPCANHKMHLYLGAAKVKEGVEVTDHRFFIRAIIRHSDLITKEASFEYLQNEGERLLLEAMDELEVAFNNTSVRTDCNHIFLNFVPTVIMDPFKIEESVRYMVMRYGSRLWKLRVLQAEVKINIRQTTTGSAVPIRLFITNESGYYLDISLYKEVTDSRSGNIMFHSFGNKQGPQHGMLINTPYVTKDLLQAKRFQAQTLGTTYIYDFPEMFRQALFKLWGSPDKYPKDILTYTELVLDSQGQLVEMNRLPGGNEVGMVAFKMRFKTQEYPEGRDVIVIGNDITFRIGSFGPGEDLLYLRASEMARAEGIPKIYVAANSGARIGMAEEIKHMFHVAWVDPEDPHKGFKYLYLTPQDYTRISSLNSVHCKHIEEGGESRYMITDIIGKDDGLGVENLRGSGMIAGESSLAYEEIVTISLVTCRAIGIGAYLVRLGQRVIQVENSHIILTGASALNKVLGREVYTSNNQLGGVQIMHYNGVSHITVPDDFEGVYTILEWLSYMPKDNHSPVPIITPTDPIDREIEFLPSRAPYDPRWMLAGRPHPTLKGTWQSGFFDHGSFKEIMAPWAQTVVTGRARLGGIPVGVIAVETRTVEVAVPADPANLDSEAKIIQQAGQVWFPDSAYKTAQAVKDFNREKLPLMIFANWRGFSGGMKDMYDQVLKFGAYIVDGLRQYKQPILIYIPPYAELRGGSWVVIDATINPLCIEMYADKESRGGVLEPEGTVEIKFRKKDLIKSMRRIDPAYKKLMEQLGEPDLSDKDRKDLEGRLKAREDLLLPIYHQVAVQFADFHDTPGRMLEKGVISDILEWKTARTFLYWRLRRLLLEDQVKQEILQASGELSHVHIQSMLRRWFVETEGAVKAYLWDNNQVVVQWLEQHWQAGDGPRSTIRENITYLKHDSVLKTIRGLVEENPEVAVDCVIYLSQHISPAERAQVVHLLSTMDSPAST

Which results are given for `CC(=O)N[C@@H](C)CC(=O)c1ccc(Oc2ccc(OCC3CC3)cc2Cl)cc1` [Compound I-001]?
IC50 ([1]; Table 154): 71 nM; IC50 [2]: > 100000 nM

Which IC50 ([1]; Table 154) does the source give for `CC(=O)N[C@@H](C)CC(=O)c1cnc(Oc2ccc(OCC3CC3)cc2Cl)s1` [Compound I-002] here?
Its IC50 is 770 nM.

And the IC50 [2]?
Its IC50 is > 100000 nM.

Which IC50 [2] does the source give for `CCCc1ccc(Oc2ccc(OC[C@H](C)NC(=O)OC(C)(C)C)cn2)c(Cl)c1` [Compound I-003] here?
Its IC50 is > 100000 nM.

What does the source list for `CC(=O)N[C@@H](C)COc1cnc(Oc2ccc3nc(C(C)C)oc3c2Cl)cn1` [Compound I-037]?
IC50 ([1]; Table 154): 167 nM; IC50 [2]: > 100000 nM

Which IC50 [2] does the source give for `CCn1c(=O)sc2c(F)c(Oc3cnc(O[C@@H](C)[C@H](C)NC(C)=O)cn3)ccc21` [Compound I-058] here?
The IC50 was > 100000 nM.

`CC(=O)N[C@@H](C)CO[C@H]1CC[C@H](Oc2ccc3nn(C(C)C)cc3c2Cl)CC1` [Compound I-067] was tested. Which IC50 ([1]; Table 154) did it give?
The IC50 was 933 nM.

What about the IC50 [2] of the same compound?
Its IC50 is > 100000 nM.

How did the IC50 ([1]; Table 154) turn out when `CC(=O)N[C@@H](C)CO[C@H]1CC[C@H](Oc2ncc3cc(Br)ccc3n2)CC1` [Compound I-079] was run?
Its IC50 is 1760 nM.

And the IC50 [2]?
The IC50 was > 100000 nM.

With `CC(=O)N[C@@H](C)COc1cnc(Oc2ccc3nc(C(C)C)ncc3c2Cl)cn1` [Compound I-081] as the compound, how does the IC50 ([1]; Table 154) read?
The IC50 was 344 nM.

What about the IC50 [2] of the same compound?
Its IC50 is > 100000 nM.

Which IC50 [2] does the source give for `CC(=O)N[C@@H](C)COc1cnc(Oc2ccc(C(=O)NC3CCOCC3)c(F)c2F)cn1` [Compound I-091] here?
Its IC50 is > 100000 nM.

Which IC50 ([1]; Table 154) does the source give for `CC(=O)N[C@@H](C)CO[C@H]1C[C@H](COc2ccc3nc(C(C)(F)F)sc3c2Cl)C1` [Compound I-098] here?
Its IC50 is 792 nM.

And the IC50 [2]?
The IC50 was > 100000 nM.

For `CCOc1nc2ccc(OC[C@H]3C[C@H](OC[C@H](C)NC(C)=O)C3)c(C#N)c2s1` [Compound I-103], which IC50 ([1]; Table 154) is on record?
Its IC50 is 4500 nM.

And the IC50 [2]?
Its IC50 is > 100000 nM.

Which IC50 ([1]; Table 154) does the source give for `CC(=O)N[C@H]1CCC[C@@H]1Oc1ccc(Oc2ccc3nc(C(C)C)sc3c2Cl)cn1` [Compound I-106] here?
The IC50 was 91 nM.

And the IC50 [2]?
The IC50 was > 100000 nM.

Which IC50 ([1]; Tables 155-159) does the source give for `C[C@@H](CO[C@H]1CC[C@H](Oc2nc3c(F)cc(OCC(F)F)c(F)c3n2C)CC1)NC(=O)CC#N` [Compound I-714] here?
Its IC50 is 44 nM.

How did the IC50 ([1]; Tables 155-159) turn out when `CC(=O)N[C@@H](C)[C@@H](C)O[C@H]1CC[C@H](Oc2nc3c(F)cc(OCC(F)F)c(F)c3n2C)CC1` [Compound I-716] was run?
The IC50 was 170 nM.

With `CC(=O)N[C@@H](C)CO[C@H]1CC[C@H](Oc2nc3c(F)c(C)c(OCC(F)F)c(F)c3n2C)CC1` [Compound I-717] as the compound, how does the IC50 ([1]; Tables 155-159) read?
Its IC50 is 15 nM.

`CCOc1ccc2nc(O[C@H]3CC[C@H](OC[C@H](C)NC(C)=O)CC3)n(C)c2c1C#N` [Compound I-720] was tested. Which IC50 ([1]; Tables 155-159) did it give?
The IC50 was 775 nM.

With `CC(=O)N[C@@H](C)CO[C@H]1CC[C@H](Oc2nc3cnc(OCC(F)F)c(Cl)c3n2C)CC1` [Compound I-722] as the compound, how does the IC50 ([1]; Tables 155-159) read?
The IC50 was 9 nM.

`CCOc1cc(F)c2nc(O[C@H]3CC[C@H](OC[C@H](C)NC(C)=O)CC3)n(C)c2c1` [Compound I-723] was tested. Which IC50 ([1]; Tables 155-159) did it give?
The IC50 was 41 nM.

With `CC(=O)N[C@@H](C)CO[C@H]1CC[C@H](Oc2nc3cnc(OC[C@@H](C)F)c(Cl)c3n2C)CC1` [Compound I-724] as the compound, how does the IC50 ([1]; Tables 155-159) read?
Its IC50 is 9 nM.

Which IC50 ([1]; Tables 155-159) does the source give for `CCOc1cc2c(nc(O[C@H]3CC[C@H](OC[C@H](C)NC(C)=O)CC3)n2C)c(Cl)c1Cl` [Compound I-725] here?
The IC50 was 101 nM.

`CC(=O)N[C@@H](C)CO[C@H]1CC[C@H](Oc2nc3c(C)nc(OC4CC4)c(Cl)c3n2C)CC1` [Compound I-726] was tested. Which IC50 ([1]; Tables 155-159) did it give?
Its IC50 is 9 nM.

With `CC(=O)N[C@@H](C)CO[C@H]1CC[C@H](Oc2nc3c(Cl)nc(C4CC4)c(Cl)c3n2C)CC1` [Compound I-727] as the compound, how does the IC50 ([1]; Tables 155-159) read?
Its IC50 is 194 nM.

`CC(=O)N[C@@H](CF)CO[C@H]1CC[C@H](Oc2nc3cnc(OCC(F)F)c(Cl)c3n2C)CC1` [Compound I-728] was tested. Which IC50 ([1]; Tables 155-159) did it give?
Its IC50 is 8 nM.

`C[C@@H](CO[C@H]1CC[C@H](Oc2nc3c(F)cc(OC4CC4)c(F)c3n2C)CC1)NC(=O)CC#N` [Compound I-729] was tested. Which IC50 ([1]; Tables 155-159) did it give?
Its IC50 is 4 nM.

`CC(=O)N[C@@H](CC#N)CO[C@H]1CC[C@H](Oc2nc3cnc(OCC(F)F)c(Cl)c3n2C)CC1` [Compound I-730] was tested. Which IC50 ([1]; Tables 155-159) did it give?
Its IC50 is 910 nM.

Which IC50 ([1]; Tables 155-159) does the source give for `CC(=O)N[C@@H](C)[C@@H](C)O[C@H]1CC[C@H](Oc2nc3cnc(OCC(F)F)c(Cl)c3n2C)CC1` [Compound I-732] here?
The IC50 was 260 nM.

With `CC(=O)N[C@@H](C)CO[C@H]1CC[C@H](Oc2nc3c(F)c(Cl)c(OCC(F)F)c(F)c3n2C)CC1` [Compound I-733] as the compound, how does the IC50 ([1]; Tables 155-159) read?
Its IC50 is 9 nM.

Which IC50 ([1]; Tables 155-159) does the source give for `CC(=O)N[C@@H](C)CO[C@H]1CC[C@H](Oc2nc3c(F)cc(OC4CC4)cc3n2C)CC1` [Compound I-734] here?
The IC50 was 4 nM.

Which IC50 ([1]; Tables 155-159) does the source give for `CCOc1ccc2nc(O[C@H]3CC[C@H](OC[C@H](C)NC(C)=O)CC3)n(C)c2c1C1CC1` [Compound I-735] here?
Its IC50 is 677 nM.

Which IC50 ([1]; Tables 155-159) does the source give for `CC(=O)N[C@@H](C)CO[C@H]1CC[C@H](Oc2nc3cnc(OC(F)F)c(Cl)c3n2C)CC1` [Compound I-736] here?
Its IC50 is 87 nM.

For `CC(=O)N[C@@H](C)CO[C@H]1CC[C@H](Oc2nc3c(F)cc(OCC4CC4)cc3n2C)CC1` [Compound I-737], which IC50 ([1]; Tables 155-159) is on record?
Its IC50 is 33 nM.

With `CC(=O)N[C@@H](C)CO[C@H]1CC[C@H](Oc2nc3c(Br)cc(OCc4ccccc4)cc3n2C)CC1` [Compound I-738] as the compound, how does the IC50 ([1]; Tables 155-159) read?
Its IC50 is 35 nM.

How did the IC50 ([1]; Tables 155-159) turn out when `CCOc1cc(Cl)c2nc(O[C@H]3CC[C@H](OC[C@H](C)NC(C)=O)CC3)n(C)c2c1Cl` [Compound I-739] was run?
The IC50 was 7 nM.

With `CCOc1cc(F)c2nc(O[C@H]3CC[C@H](OC[C@H](C)NC(C)=O)CC3)n(C)c2c1Cl` [Compound I-740] as the compound, how does the IC50 ([1]; Tables 155-159) read?
Its IC50 is 3 nM.

Which IC50 ([1]; Tables 155-159) does the source give for `CC(=O)N[C@@H](C)CO[C@H]1CC[C@H](Oc2nc3c(F)cc(OCC(F)F)c(F)c3n2C)CC1` [Compound I-741] here?
The IC50 was 7 nM.

How did the IC50 ([1]; Tables 155-159) turn out when `CC(=O)N[C@@H](C)CO[C@H]1CC[C@H](Oc2nc3c(Cl)cc(OCC(F)F)c(F)c3n2C)CC1` [Compound I-742] was run?
The IC50 was 13 nM.

`CC(=O)N[C@@H](C)CO[C@H]1CC[C@H](Nc2nc3c(F)cc(OCC(F)F)c(F)c3n2C)CC1` [Compound I-744] was tested. Which IC50 ([1]; Tables 155-159) did it give?
Its IC50 is 740 nM.

How did the IC50 ([1]; Tables 155-159) turn out when `CC(=O)N[C@@H](C)CC(O)[C@@H]1CC[C@@H](Oc2nc3c(F)cc(OCC(F)F)c(F)c3n2C)CO1` (some centres unmarked) [Compound I-745] was run?
Its IC50 is 490 nM.

`CC(=O)N[C@@H](C)[C@@H](C)O[C@H]1CC[C@H](Oc2nc3cnc(OC4CC4)c(F)c3n2C)CC1` [Compound I-746] was tested. Which IC50 ([1]; Tables 155-159) did it give?
Its IC50 is 350 nM.

With `CC(=O)N[C@@H](C)CO[C@H]1CC[C@H](Oc2nc3c(F)c(C#N)c(OCC(F)F)c(F)c3n2C)CC1` [Compound I-747] as the compound, how does the IC50 ([1]; Tables 155-159) read?
Its IC50 is 44 nM.

For `CC(=O)N[C@@H](C)CC[C@H]1OC[C@H](Oc2nc3c(F)cc(OCC(F)F)c(Cl)c3n2C)CO1` [Compound I-748], which IC50 ([1]; Tables 155-159) is on record?
The IC50 was 5 nM.
